From patent US20260070905A1, “Derivatives of Imidazo[1,2-A]Pyridine with Anti-Inflammatory Activity” (Universitat de Veléncia, priority 2023, published 2026)
Entries after “also recorded” stand apart in the source; their conditions may differ.

Key:
[1] = molecular target: T1, recombinant Alk5 kinase (TGFβRI) (Homo sapiens, UniProt P36897); assay: In vitro Alk5 kinase inhibition (Kinase-Glo luminescent kinase assay); format: biochemical; conditions: for % kinase activity reduction: values refer to a 100% reduction in activity of the inhibition control GW788388 Hydrate, concentrations of 5 and 10 μM evaluated, ATP 100 μM, 2 h; for Alk5 kinase inhibition: in vitro kinase assay (FIG. 1)
T1 construct: purchased Abcam ab105908
T1 sequence (P36897 34-503): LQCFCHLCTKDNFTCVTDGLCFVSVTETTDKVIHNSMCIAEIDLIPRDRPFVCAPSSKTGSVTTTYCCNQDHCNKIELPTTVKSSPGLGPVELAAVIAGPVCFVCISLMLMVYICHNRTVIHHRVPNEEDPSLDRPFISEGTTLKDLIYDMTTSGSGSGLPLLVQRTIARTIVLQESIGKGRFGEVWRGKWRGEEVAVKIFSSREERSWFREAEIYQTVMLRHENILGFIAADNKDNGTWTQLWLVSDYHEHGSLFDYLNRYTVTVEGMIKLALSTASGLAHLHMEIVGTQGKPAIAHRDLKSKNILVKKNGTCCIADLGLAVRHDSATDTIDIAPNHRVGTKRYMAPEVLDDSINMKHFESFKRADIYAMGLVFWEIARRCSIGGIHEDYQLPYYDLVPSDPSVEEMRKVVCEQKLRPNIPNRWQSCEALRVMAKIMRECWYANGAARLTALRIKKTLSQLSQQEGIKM
Protocol: For this purpose, recombinant Alk5 (Abcam, ref ab105908) was used, and kinase activity was determined using the commercial Kinase-Glo® Luminiscent kinase assay platform (Promega, ref. TB372).
For this purpose, commercially available recombinant Alk5 protein (Abcam, ref ab105908) was used, as well as the commercial Kinase-Glo® Luminiscent kinase assay platform (Promega, ref TB372), which determines the adenosine triphosphate (ATP) not consumed in the phosphorylation reaction by its conjugation to luciferin in a reaction catalyzed by the luciferase enzyme in the presence of Mg^2+. The luminescence observed is inversely proportional to kinase activity.
From this stock solution, dilutions were made in kinase buffer (Tris-HCl pH 7.5 40 mM; MgCl2 20 mM; bovine serum albumin (BSA) 0.1 mg/mL) of 10 μM and concentrations of 5 and 10 μM were evaluated.
Incubation was carried out for 2 hours at room temperature with stirring and in darkness, following the instructions for the commercial system.
After this time, 50 μL of commercial substrate (diluted 1:8) was added, left to stir for 10 minutes at room temperature, and the luminescence was read using a Luminoskan Ascent instrument (Thermo Scientific, Waltham, USA).
All reactions were performed in duplicate.

[2] = system: acute lung injury (ALI) induced by LPS; assay: Murine model of acute lung injury (ALI) induced by intratracheal LPS; format: in vivo, mouse (C57BL/6J-OlaHsd); conditions: mice
Source text: In order to evaluate the potential anti-inflammatory effect of the PS1906 molecule in an in vivo model, we selected the ALI model induced by tracheal instillation of lipopolysaccharide (LPS), which has been widely described in the literature and previously performed by members of the research group (Clemente-Moragón et al., 2020). This murine model is a model of acute lung inflammation or damage associated with a long-term fibrotic period, so it can be used to study both inflammatory lung diseases and pulmonary fibrotic processes.
Mice of the C57BL/6J-OlaHsd strain were chosen for this model. Adult mice were kept in pathogen-free conditions in a temperature-controlled room with a 12-hour light-dark cycle. Food and water were available ad libitum. The mice were anesthetized intraperitoneally with an injection of an anesthetic cocktail containing atropine sulfate (1 mg/kg; B. Braun, 1 mg/mL), xylazine hydrochloride (20 mg/kg; Rompun® Bayer, 20 mg/mL), and ketamine (100 mg/kg; Anesketin Dechra, 100 mg/mL). All experimental and other scientific procedures involving animals complied with EU Directive 2010/63EU and Recommendation 2007/526/EC, enacted into Spanish law under Real Decreto 53/2013. Animal protocols were approved by local ethics committees and the Animal Protection Area of the Autonomous Community of Madrid.
In vitro studies were taken into account when selecting the doses to be administered, with a concentration of 10 μM being considered the maximum effective (non-toxic) concentration. Assuming an approximate blood volume of 2 mL for a mouse weighing about 30 g, and taking into account a loss due to distribution, metabolism, or secretion of 50% of the products, we calculated dose 1 (D1) and selected dose 2 (D2) as twice the first. Thus, taking into account the respective molecular weights, the corresponding doses for the PS1906 product were 156 μg/kg (D1) and 312 μg/kg (D2). Physiological saline was used as a diluent for the preparation of the different doses. All doses were prepared to administer the same volume in the mouse. The doses were administered intravenously with the animal properly anesthetized moments before the induction of pulmonary inflammation. […]
After 24 h, the animals were sacrificed and the lungs were washed with 1.5 mL of cold PBS through a tracheal catheter (Introcan Safety 22G, Braun), and a total of 1 mL of bronchoalveolar lavage fluid was extracted from each mouse for the detection of neutrophils and lymphocytes by flow cytometry. […] The data were analyzed with FlowJo software (Ashland). […]

[3] = system: Caco-2 cells; assay: Viability / MTT cytotoxicity assay on Caco-2 intestinal epithelial cells; format: cell-based; conditions: Caco-2 epithelial cells, all concentrations used (1, 5 and 10 μM), 24 h (FIG. 3A)
Protocol: To quantify the percentage of cells that remained viable in each of the experiments, THP-1-XBlue™-CD14 macrophages (InvivoGen, 8 to 13 passages) were evaluated, derived from human THP-1 monocytes, which stably express the gene for the alkaline phosphatase enzyme inducible by the NF-kB and AP-1 promoters. Human intestinal epithelial Caco-2 cells (ATCC®, HTB-37TM, 10 to 12 passages) were also evaluated. To do this, Trypan blue (Gibco) was used as an exclusion stain. This dye penetrates cells with damaged membranes (a sign of cell death) and stains their cytoplasm dark blue. To do this, the cell suspensions tested were centrifuged at 500×g (5 min at 24° C.), the cell sediments were resuspended in 0.1 mL of PBS, and then 10 μL were mixed with 10 μL of trypan blue (0.4%) filtered through 0.22 μm. The percentage of live cells was determined in 10 μL of the above mixture using a chamber and a Countess™ cell counter (Invitrogen).
In this second cytotoxicity assessment on THP-1-XBlue-CD14 and Caco-2, the technique previously described was used with the MTT dye (3-(4,5-dimethylthiazol-2-yl)-2,5-diphenyltetrazolium bromide) (Biotium).
To do this, both types of cells were seeded in 96-well plates under conditions identical to those used in the anti-inflammation assays. The cells were then washed with PBS and treated with different compounds: 1) PBS (10 μL) (positive growth control, vehicle); 2) 20% DMSO (negative control, as high doses of this compound are cytotoxic); 3) different concentrations of the compounds PS1801 and PS1906 (1, 5, and 10 μM). The plates were incubated for 24 hours at 37° C., 5% CO2, and then 10 μL of MTT was added to each well and the plate was incubated for 4 hours at 37° C., 5% CO2. The formazan crystals formed were dissolved in 180 μL of DMSO, and the plate was incubated for 20 minutes with shaking at room temperature. The absorbance was measured in each well at 595 nm (problem) and 655 nm (background), following the manufacturer's instructions, using an iMark™ Microplate Absorbance Reader (Bio-Rad). The samples were analyzed in triplicate.

[4] = system: THP-1-XBlue™-CD14 macrophages; assay: MTT cytotoxicity assay on THP-1-XBlue-CD14 macrophages; format: cell-based; conditions: THP-1 macrophages, all concentrations used (1, 5 and 10 μM), 24 h (FIG. 2, FIG. 3B)
Source text: To quantify the percentage of cells that remained viable in each of the experiments, THP-1-XBlue™-CD14 macrophages (InvivoGen, 8 to 13 passages), derived from human THP-1 monocytes, which stably express the gene for the alkaline phosphatase enzyme inducible by the NF-kB and AP-1 promoters.
The MTT dye (3-(4,5-dimethylthiazol-2-yl)-2,5-diphenyltetrazolium bromide) (Biotium) was used. This assay is based on the cleavage of the yellow MTT tetrazolium salt to form purple formazan crystals, produced by metabolically active cells. Formazan is solubilized with DMSO and its concentration is determined by spectrophotometry; the optical density is proportional to the number of viable cells.
To do this, the cells were seeded in 96-well plates at a density of 3×10^5 cells/mL in RPMI 1640 medium (Gibco) supplemented with 10% FBS, penicillin, streptomycin (both at a concentration of 100 μg/mL, Sigma-Aldrich), and PMA (100 ng/mL) (Sigma-Aldrich), and were cultured at 37° C., 5% CO2 for 48 h. […] The absorbance was measured in each well at 595 nm (problem) and 655 nm (background), following the manufacturer's instructions, using an iMark™ Microplate Absorbance Reader (Bio-Rad). The samples were analyzed in triplicate. The percentage of viable cells was calculated using the following formula: […]

SMILES	% kinase activity reduction [1]	Alk5 kinase inhibition [1]	ALI score (histopathological lung damage) ([2]; i.v. 156 μg/kg (D1) and 312 μg/kg (D2), LPS 10 mg/kg intratracheal, 24 h (FIG. 6A, 6B), listed as PS1906)	neutrophils in bronchoalveolar lavage fluid (flow cytometry) ([2]; i.v. 156 μg/kg (D1) and 312 μg/kg (D2), LPS 10 mg/kg intratracheal, 24 h (FIG. 6C))	lymphocytes in bronchoalveolar lavage fluid (flow cytometry) ([2]; i.v. 156 μg/kg (D1) and 312 μg/kg (D2), LPS 10 mg/kg intratracheal, 24 h (FIG. 6D), not statistically significant)	total number of infiltrated cells in bronchoalveolar lavage fluid (flow cytometry) ([2]; i.v. D1 and D2, LPS intratracheal, 24 h)	cytotoxic effects (cell viability) [3]	cytotoxic effects (cell viability) [4]
Oc1ccc(-c2ccn3ccnc3c2)cc1 [Compound 12, 4-(Imidazo[1,2-a]pyridin-7-yl)phenol]	87.5%	–	–	–	–	–	–	–
COc1ccc(-c2cn3ccc(-c4ccc(O)cc4)cc3n2)cc1 [Compound 16, 4-(2-(4-Methoxyphenyl)imidazo[1,2-a]pyridin-7-yl)phenol]	75.4%	–	–	–	–	–	–	–
c1ccc2oc(-c3ccn4ccnc4c3)cc2c1 [Compound 26, 7-(Benzofuran-2-yl)imidazo[1,2-a]pyridine]	93.4%	one of those that showed the greatest inhibitory effect	significantly different from the group of sick mice treated with LPS; also recorded: positive effect	dose-dependent anti-inflammatory effect	dose-dependent anti-inflammatory effect	dose-dependent anti-inflammatory effect	no cytotoxic effects	–
CCOC(=O)c1cc2cc(-c3cnc4ccccn34)ccc2[nH]1 [Compound 31, Ethyl 5-(imidazo[1,2-a]pyridin-3-yl)-1H-indole-2-carboxylate]	79.1%	–	–	–	–	–	no cytotoxic effects	–
O.O=C(NC1CCOCC1)c1ccc(-c2cc(-c3c[nH]nc3-c3ccccn3)ccn2)cc1 [GW788388, 4-{4-[3-(pyridin-2-yl)-1H-pyrazol-4-yl]-pyridin-2-yl}-N-(tetrahydro-2H-pyran-4-yl)benzamide hydrate, reference compound]	–	approximately 25%	–	–	–	–	lacking cytotoxic activity	lacking cytotoxic activity
